This note sets out measurements from ChEMBL document CHEMBL2073893, “BBB transport and P-glycoprotein functionality using MDR1A (-/-) and wild-type mice. Total brain versus microdialysis concentration profiles of rhodamine-123” (Pharm Res, 1998).

The target in the data set is ATP-dependent translocase ABCB1 (Mus musculus, UniProt P21447). Put plainly: TP_TRANSPORTER: increase in brain concentration in mdr1a(-/-) mouse. The data set is classed as functional, organism-based. Conditions: in vivo.
ATP-dependent translocase ABCB1, sequence (P21447 whole entry): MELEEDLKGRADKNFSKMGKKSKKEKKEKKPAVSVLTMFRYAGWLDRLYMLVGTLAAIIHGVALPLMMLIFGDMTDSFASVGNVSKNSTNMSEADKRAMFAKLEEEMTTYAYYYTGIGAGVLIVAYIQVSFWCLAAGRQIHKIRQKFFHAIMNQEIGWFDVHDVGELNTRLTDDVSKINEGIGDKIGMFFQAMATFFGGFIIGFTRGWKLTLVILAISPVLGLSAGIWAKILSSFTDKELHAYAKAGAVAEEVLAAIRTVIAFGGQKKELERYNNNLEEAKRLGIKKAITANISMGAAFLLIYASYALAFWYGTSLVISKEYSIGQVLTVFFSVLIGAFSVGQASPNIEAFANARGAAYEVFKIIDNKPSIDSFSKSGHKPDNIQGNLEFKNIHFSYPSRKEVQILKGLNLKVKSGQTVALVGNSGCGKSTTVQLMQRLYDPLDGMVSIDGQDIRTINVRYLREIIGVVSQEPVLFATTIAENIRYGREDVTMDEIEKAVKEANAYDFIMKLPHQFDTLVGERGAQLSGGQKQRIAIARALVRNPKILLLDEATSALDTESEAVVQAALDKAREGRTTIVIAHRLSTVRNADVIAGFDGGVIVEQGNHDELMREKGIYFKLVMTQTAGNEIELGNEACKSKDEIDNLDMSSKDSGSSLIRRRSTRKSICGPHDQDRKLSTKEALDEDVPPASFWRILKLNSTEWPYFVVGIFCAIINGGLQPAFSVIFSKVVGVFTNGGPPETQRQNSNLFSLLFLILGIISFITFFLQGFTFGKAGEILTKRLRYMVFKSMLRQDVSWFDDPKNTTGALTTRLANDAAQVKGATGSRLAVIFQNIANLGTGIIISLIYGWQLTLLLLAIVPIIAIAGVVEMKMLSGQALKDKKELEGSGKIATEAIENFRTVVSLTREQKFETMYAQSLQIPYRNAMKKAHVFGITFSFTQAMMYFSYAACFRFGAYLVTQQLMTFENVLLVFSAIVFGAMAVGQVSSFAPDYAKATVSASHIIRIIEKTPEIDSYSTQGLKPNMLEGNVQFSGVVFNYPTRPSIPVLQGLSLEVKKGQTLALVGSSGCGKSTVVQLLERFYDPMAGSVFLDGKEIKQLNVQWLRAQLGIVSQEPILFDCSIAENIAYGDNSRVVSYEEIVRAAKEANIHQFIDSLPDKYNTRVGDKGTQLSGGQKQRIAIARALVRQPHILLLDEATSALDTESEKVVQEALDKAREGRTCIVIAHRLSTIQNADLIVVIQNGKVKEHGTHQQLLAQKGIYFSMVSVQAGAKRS

Take `COC(=O)c1ccccc1-c1c2ccc(=N)cc-2oc2cc(N)ccc12.Cl` [RHODAMINE123]: the Activity entry is “substrate [+]”.
